Laboratory results reported in publication PMC7324608 (Scientific Reports, 2020).
Positions count from the first letter of the chain named. In names and notes the source's numbering stands. Where no end group is shown, it is not given here. [ ]: non-standard residue; d: D form. Tyr(3-NO2) = N[C@@H](Cc1ccc(O)c([N+](=O)[O-])c1)C(=O)O; 2Abz = Nc1ccccc1C(=O)O

T1: HpHtrA (Helicobacter pylori, UniProt G2J5T2)
T1 construct: (HpHtrA, G18-K475, UniProt G2J5T2); GST (N, cleaved yes); made in house; host or cells: E. coli BL21
T1 sequence (G2J5T2 18-475): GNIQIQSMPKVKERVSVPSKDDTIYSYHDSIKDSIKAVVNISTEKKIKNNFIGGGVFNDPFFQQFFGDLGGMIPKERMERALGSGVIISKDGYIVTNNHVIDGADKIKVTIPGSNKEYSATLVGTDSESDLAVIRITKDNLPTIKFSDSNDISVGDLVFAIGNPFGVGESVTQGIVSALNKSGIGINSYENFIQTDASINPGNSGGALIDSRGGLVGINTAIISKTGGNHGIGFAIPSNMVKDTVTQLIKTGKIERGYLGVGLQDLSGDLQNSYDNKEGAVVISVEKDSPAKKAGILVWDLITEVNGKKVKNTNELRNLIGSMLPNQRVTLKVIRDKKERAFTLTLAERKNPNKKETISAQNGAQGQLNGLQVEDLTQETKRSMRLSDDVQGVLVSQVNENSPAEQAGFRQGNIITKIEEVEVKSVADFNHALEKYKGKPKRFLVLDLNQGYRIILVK

T2: HpHtrA wt (Helicobacter pylori, UniProt G2J5T2)
T2 sequence (G2J5T2 18-475): T1 sequence (G2J5T2 18-475)

B1: HpHtrA S164A (enzyme)
chain: T1 sequence (G2J5T2 18-475) with S147A
B2: HtrA wild type (wt) from the H. pylori strain Hp26695 (enzyme)
chain: T1 sequence (G2J5T2 18-475)
notes: also called HpHtrA; HpHtrA wt

What was measured:
HpHtrA [1] = molecular target: T1, HpHtrA; test: in vitro casein cleavage by HpHtrA (Coomassie SDS-PAGE); type: biochemical; conditions: 1 mM; 10 µg casein, 250 ng HpHtrA, 16 h, 37 °C
Source text: (§1) The proteins were separated by SDS-PAGE and visualized by staining with Coomassie Brilliant Blue G250 (Lactan, Vienna, Austria). […] Proteins were separated using SDS-PAGE and blotted onto a nitrocellulose membrane. Human Cdh1 was detected by an antibody recognizing the EC5 domain of hCdh1 (Abcam, Cambridge, UK) and a polyclonal serum was used to detect HpHtrA[22]. Independent experiments were repeated at least three times.

HpHtrA [2] = molecular target: T1, HpHtrA; test: in vitro E-cadherin (hCdh1) cleavage by HpHtrA (Western blot); type: biochemical; conditions: 1 mM; 50 ng hCdh1, 250 ng HpHtrA, 16 h, 37 °C
Source text: as §1

[3] = type: physicochemical; conditions: 50 mM HEPES pH 7.4, 3 h, 37 °C, absence of protease and presence of HpHtrA SA mutant
Protocol: (§2) Fig. S4. MS analysis of the HpHtrA-mediated cleavage products of 2-Abz-AQRVAF-Y(3-NO2)-NH2. The […]
(§3) ratio in 50 mM HEPES buffer (pH 7.4) for 3 h at 37°C. The samples were desalted by using ZipTip® pipette tips (Merck Millipore) and measured by MALDI -TOF-MS (positive mode). The peptide was found to be stable in the buffer in the absence of the protease as well as in the presence of the HpHtrA […]
(§4) (1 picture or pasted object on this page, not shown here)

HpHtrA wt = molecular target: T2, HpHtrA wt; test: MS analysis of HpHtrA-mediated cleavage of the FRET peptide; type: biochemical; design: (HpHtrA, G18-K475, UniProt G2J5T2); GST (N, cleaved yes); made in house; host or cells: E. coli BL21; conditions: peptide:HpHtrA 20:1, 50 mM HEPES pH 7.4, 3 h, 37 °C, MALDI-TOF-MS
Protocol: as §2, §3, §4

[4] = molecular target: the molecule itself; test: casein zymography + other: non-reducing SDS-PAGE; recombinant HpHtrA proteins in non-reducing sample buffer without beta-mercaptoethanol; SDS-PAGE with 0.1% casein, renatured and developed 24 h at 37 °C, or Coomassie-stained non-reducing SDS-PAGE for detection of multimers
[5] = molecular target: the molecule itself; test: non-reducing SDS-PAGE; HpHtrA wt untreated or with increasing concentrations of ZnCl2 or CuCl2; Coomassie-stained SDS-PAGE under non-reducing conditions

Molecule	effect on HtrA-mediated casein degradation (HpHtrA [1])	effect on HpHtrA-mediated hCdh1 cleavage/fragmentation (HpHtrA [2])	other results
O=C(O)CN(CCN(CC(=O)O)CC(=O)O)CC(=O)O [EDTA, ethylenediaminetetraacetic acid, reference compound]	did not alter	considerably enhanced	–
2-Abz-AQRVAF-Y(3-NO2)-NH2 ([2Abz]AQRVAF[Tyr(3-NO2)]-NH2; N-terminus assumed; SMILES CC(C)[C@H](NC(=O)[C@H](CCCNC(=N)N)NC(=O)[C@H](CCC(N)=O)NC(=O)[C@H](C)NC(=O)c1ccccc1N)C(=O)N[C@@H](C)C(=O)N[C@@H](Cc1ccccc1)C(=O)N[C@@H](Cc1ccc(O)c([N+](=O)[O-])c1)C(N)=O) [FRET substrate peptide AQRVAF with N-terminal 2-aminobenzoyl fluorophore and C-terminal 3-nitro-tyrosine quencher]	–	–	stability of the peptide [3]: stable; cleavage of the peptide by HpHtrA (HpHtrA wt): fully cleaved, preferentially after Val
[Ca+2].[Cl-].[Cl-] [Ca^++, CaCl2]	–	significantly blocked	–
O=C(O)CN(CCOCCOCCN(CC(=O)O)CC(=O)O)CC(=O)O [EGTA, ethylene glycol-bis(β-aminoethyl ether)-N,N,N′,N′-tetraacetic acid, reference compound]	did not alter	considerably enhanced	–
B1	–	–	binding result [4]: binds
B2	–	–	binding result [5]: binds
